Patent US20260217688A1, “INHIBITORS OF JAK2” (Llydaw Therapeutics, Inc., priority 2022, published 2026)

Key:
[1] = molecular target: T1, JAK2 JH2 (Homo sapiens, UniProt O60674); experiment: JAK2 JH2 TR-FRET Assay; assay type: binding; details: JAK2 JH2 1 nM, Tracer ZE84-0003 10 nM
T1 construct: Enzyme: JAK2 JH2, His-Avi-Tag, Biotin-Labeled (BPS Bioscience, Cat #79074) 1 nM; His; purchased BPS Bioscience 79074
Method: Assay Buffer 1×: • 20 mM HEPES pH 7.2-7.4; • 10 mM MgCl2; • 0.015% Brij-35; • 2 mM DTT; • 0.05 mg/ml BSA.
Final assay concentrations: • DMSO: 0.25%; • Streptavidin Tb-cryptate (Cisbio, Cat #610SATLB) 0.2 nM; • Enzyme: JAK2 JH2, His-Avi-Tag, Biotin-Labeled (BPS Bioscience, Cat #79074) 1 nM; • Probe: Tracer ZE84-0003 (ChemRar) 10 nM.
Materials: • Reaction plate: ProxiPlate-384 Plus White Plate (PerkinElmer); • Dilution plate: Diamond Well Plate (Axygen, Cat #P-384-120 SQ-C-S); • Compounds plate: Diamond Well Plate (Axygen, Cat #P-384-120 SQ-C-S).
Assay protocol: • 1. Prepare 400× solutions of compounds in DMSO into Compounds plate; • 2. Prepare Dilution plate: add 39 μL of 1× Assay buffer per well of Dilution plate; • 3. Prepare 2×Tb-cryptate mix in 1× Assay buffer. Add 10 μL of 2×Tb-cryptate mix to K-(Tb-cryptate and Probe without Enzyme) wells and blank (Tb-cryptate without Probe and Enzyme) wells; • 4. Add JAK2 JH2 into the rest of 2×Tb-cryptate mix to make 2×JAK2 JH2+Tb-cryptate mix. Add 10 μL per well into Reaction plate; • 5. Centrifuge plate at 200 g for 1 min; • 6. Dilute 1 μL of 400× compounds in 39 μL 1× Assay buffer in Dilution plate; • 7. Add 2 μL of 10× compounds from Dilution plate to Reaction plate with 10 μL of JAK2 JH2+Tb-cryptate mix; • 8. Centrifuge plate at 200 g for 1 min; • 9. Pre-incubate Reaction plate with compounds 15 min; • 10. Prepare 2.5× Tracer mix; • 11. Add 8 μL of 2.5× Tracer mix into appropriate wells of Reaction plate; • 12. Centrifuge plate at 800 g for 3 min; • 13. Incubate at rt for 15 min; • 14. Measure Fluorescence using Microplate Reader (Ex: TR, Em1/Em2: 482/520). The results of this assay are shown in the Table B. The values of EC50 shown as a letters A-D, where: A≤0.01 μM; 0.01 μM<B≤0.05 μM; 0.05 μM<C≤0.1 μM; D>0.1.

[2] = Proliferation inhibition assay (CellTiter-Glo), Ba/F3 JAK2 wt; assay type: cell-based; details: mouse, Ba/F3 (JAK2 wt) cells, with 10 ng/ml rmIL-3, 72 h; read-out: Ba/F3 JAK2 wt + IL3, CC50 3 days
Method: (§1) Ba/F3 (JAK2 wt) (ABM, T3076) cells and Ba/F3 (JAK2 V617F) (WuXi AppTec) cells were grown in RPMI-1640 (Gibco, cat. number 21870) supplemented with 10% FBS (Hyclone Laboratories Inc, Cat #SV30160.03), 1× Antibiotic-antimycotic (Gibco, Cat #15240-062), 2× Sodium pyruvate (Paneco, cat #F023), 2× Essential amino acids (Paneco, cat #F115/100), 1× Non-Essential amino acids (Paneco, cat #F116) at 37° C. in 5% CO2 atmosphere.
(§2) For the proliferation inhibition assay Ba/F3 (JAK2 wt) and Ba/F3 (JAK2 V617F) cells were seeded into a CellBIND® 384-well Flat Clear Bottom Black Polystyrene Microplates (Corning, USA, Cat #3770) at a density of 4000 cells per well in complete culture medium with or without 10 ng/ml rmIL-3 (RD systems, USA, Cat #403-ML-025) using Biomek FX/NX (384) liquid handler, 45 μl of cell suspension in complete culture medium per well. 500× compound's stocks in DMSO (Sigma Cat #D2650) were prepared in compounds plate (Diamond Well Plate, Axigen, Cat #P-384-120 SQ-C-S) applying Biomek 2000. 1 μl of 500× compounds stock was added to 49 μl of complete culture medium into Dilution plate (Diamond Well Plate, Axigen, Cat #P-384-120 SQ-C-S), mixed and then 5 μl of 10× compounds solution was transferred to cells using Biomek FX/NX (384) liquid handler. The centrifugation at 100 g for 1 min at Eppendorf 5810 followed. Final DMSO concentration in assay was 0.2%. All treatments were performed in technical and biological duplicates. Treated cells were incubated for 72 h at 37° C. with 5% CO2.
(§3) After 3 days of incubation, CellTiter-Glo Luminescent Cell Viability Assay (Promega) was performed. 10 μl of CellTiter-Glo (Promega, CAT #G7572) was added to the cells using Biomek FX/NX (384) liquid handler. The assay plate was centrifuged at 100 g for 1 min and luminescence signal was measured using Microplate Reader (CLARIOStar).

[3] = tested on: Ba/F3 (JAK2 V617F) cells; experiment: Proliferation inhibition assay (CellTiter-Glo), Ba/F3 JAK2 V617F; assay type: cell-based; details: Mus musculus, BaF3; without IL3, 72 h; read-out: Ba/F3 JAK2 V617F, CC50 3 days
Method: as §1, §2, §3

T1 sequence (O60674 545-809 limits assumed): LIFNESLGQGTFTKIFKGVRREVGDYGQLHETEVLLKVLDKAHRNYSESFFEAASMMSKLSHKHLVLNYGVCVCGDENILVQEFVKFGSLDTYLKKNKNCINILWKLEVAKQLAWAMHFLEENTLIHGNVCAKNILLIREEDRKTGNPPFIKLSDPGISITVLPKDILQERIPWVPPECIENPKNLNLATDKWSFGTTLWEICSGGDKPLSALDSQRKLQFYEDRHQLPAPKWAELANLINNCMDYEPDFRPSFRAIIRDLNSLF

SMILES | EC50 [1] [nM] | CC50 at 72 h [2] [nM] | CC50 [3] [nM]
COc1c(Nc2nc(Nc3cnn(CCN(C)C)c3)ncc2C(N)=O)cccc1-c1ncn(C)n1 [Compound 5, 2-((1-(2-(dimethylamino)ethyl)-1H-pyrazol-4-yl)amino)-4-((2-methoxy-3-(1-methyl-1H-1,2,4-triazol-3-yl)phenyl)amino)pyrimidine-5-carboxamide] | 10 to 50 | – | –
COc1c(Nc2nc(Nc3cn(C)nc3C)ncc2C(N)=O)cccc1-c1ncn(C)n1 [Compound 13, 2-[(1,3-dimethylpyrazol-4-yl)amino]-4-[2-methoxy-3-(1-methyl-1,2,4-triazol-3-yl)anilino]pyrimidine-5-carboxamide] | > 100 | – | –
CCCn1nc(C)c(Nc2ncc(C(N)=O)c(Nc3cccc(-c4ncn(C)n4)c3OC)n2)c1C [Compound 19, 2-[(3,5-dimethyl-1-propyl-pyrazol-4-yl)amino]-4-[2-methoxy-3-(1-methyl-1,2,4-triazol-3-yl)anilino]pyrimidine-5-carboxamide] | > 100 | – | –
COc1c(Nc2nc(Nc3c(C)nn(C(C)C)c3C)ncc2C(N)=O)cccc1-c1ncn(C)n1 [Compound 20, 2-[(1-isopropyl-3,5-dimethyl-pyrazol-4-yl)amino]-4-[2-methoxy-3-(1-methyl-1,2,4-triazol-3-yl)anilino]pyrimidine-5-carboxamide] | > 100 | – | –
COc1c(Nc2nc(Nc3cnn(CC45CC6CC(CC(C6)C4)C5)c3)ncc2C(N)=O)cccc1-c1ncn(C)n1 [Compound 23, 2-[[1-(1-adamantylmethyl)pyrazol-4-yl]amino]-4-[2-methoxy-3-(1-methyl-1,2,4-triazol-3-yl)anilino]pyrimidine-5-carboxamide] | > 100 | – | –
CCCCCCCCn1cc(Nc2ncc(C(N)=O)c(Nc3cccc(-c4ncn(C)n4)c3OC)n2)cn1 [Compound 25, 4-[2-methoxy-3-(1-methyl-1,2,4-triazol-3-yl)anilino]-2-[(1-octylpyrazol-4-yl)amino]pyrimidine-5-carboxamide] | > 100 | – | –
COc1c(Nc2nc(Nc3cnn(CCC4CCCCN4C)c3)ncc2C(N)=O)cccc1-c1ncn(C)n1 (stereo not drawn) [Compound 27, 4-[2-methoxy-3-(1-methyl-1,2,4-triazol-3-yl)anilino]-2-[[1-[2-(1-methyl-2-piperidyl)ethyl]pyrazol-4-yl]amino]pyrimidine-5-carboxamide] | > 100 | – | –
COc1c(Nc2nc(Nc3cnn(C(C)C)c3)ncc2C(=O)N(C)C)cccc1-c1ncn(C)n1 [Compound 31, 2-[(1-Isopropyl-1H-pyrazol-4-yl)amino]-4-{[2-methoxy-3-(1-methyl-1H-1,2,4-triazol-3-yl)phenyl]amino}-N,N-dimethylpyrimidine-5-carboxamide] | > 100 | – | –
COc1c(Nc2nc(Nc3cnn(C4CCN(C)CC4)c3)ncc2C(N)=O)cccc1-c1nc2ccccc2o1 [Compound 32, 4-[3-(1,3-benzoxazol-2-yl)-2-methoxy-anilino]-2-[[1-(1-methyl-4-piperidyl)pyrazol-4-yl]amino]pyrimidine-5-carboxamide] | 10 to 50 | 1000 to 5000 | 500 to 1000
COc1c(Nc2nc(Nc3cnn(C4CCN(C(C)C)CC4)c3)ncc2C(N)=O)cccc1-c1nc2ccccc2o1 [Compound 33, 4-[3-(1,3-benzoxazol-2-yl)-2-methoxy-anilino]-2-[[1-(1-isopropyl-4-piperidyl)pyrazol-4-yl]amino]pyrimidine-5-carboxamide] | 10 to 50 | 1000 to 5000 | ≤ 500
COc1c(Nc2nc(Nc3cnn(CCN(CC(C)C)CC(C)C)c3)ncc2C(N)=O)cccc1-c1nc2ccccc2o1 [Compound 34] | > 100 | 5000 to 10000 | 1000 to 5000
COc1c(Nc2nc(Nc3cnn(C4CCN(C(C)C)CC4)c3)ncc2C(N)=O)cccc1-c1ncn(C)n1 [Compound 35, 2-[[1-(1-isopropyl-4-piperidyl)pyrazol-4-yl]amino]-4-[2-methoxy-3-(1-methyl-1,2,4-triazol-3-yl)anilino]pyrimidine-5-carboxamide] | 10 to 50 | > 10000 | 1000 to 5000
COc1c(Nc2nc(Nc3cnn(C)c3)ncc2C(N)=O)cccc1-c1cccnc1 [Compound 36, 4-[2-methoxy-3-(3-pyridyl)anilino]-2-[(1-methylpyrazol-4-yl)amino]pyrimidine-5-carboxamide] | 10 to 50 | > 10000 | > 10000
COc1c(Nc2nc(Nc3cnn(C)c3)ncc2C(N)=O)cccc1-c1ccncc1 [Compound 37, 4-[2-methoxy-3-(4-pyridyl)anilino]-2-[(1-methylpyrazol-4-yl)amino]pyrimidine-5-carboxamide] | 10 to 50 | 5000 to 10000 | 5000 to 10000
COc1c(Nc2nc(Nc3cnn(C(C)C)c3)ncc2C(N)=O)cccc1-c1ccccn1 [Compound 38, 2-[(1-isopropylpyrazol-4-yl)amino]-4-[2-methoxy-3-(2-pyridyl)anilino]pyrimidine-5-carboxamide] | 10 to 50 | 5000 to 10000 | ≤ 500
COc1c(Nc2nc(Nc3cnn(C4CCCCC4)c3)ncc2C(N)=O)cccc1-c1ccccn1 [Compound 39, 2-[(1-cyclohexylpyrazol-4-yl)amino]-4-[2-methoxy-3-(2-pyridyl)anilino]pyrimidine-5-carboxamide] | 50 to 100 | 5000 to 10000 | ≤ 500
COc1c(Nc2nc(Nc3cnn(C4CCOCC4)c3)ncc2C(N)=O)cccc1-c1ccccn1 [Compound 40, 4-[2-methoxy-3-(2-pyridyl)anilino]-2-[(1-tetrahydropyran-4-ylpyrazol-4-yl)amino]pyrimidine-5-carboxamide] | 10 to 50 | 5000 to 10000 | ≤ 500
COc1c(Nc2nc(Nc3cnn(C45CC6CC(CC(C6)C4)C5)c3)ncc2C(N)=O)cccc1-c1ccccn1 [Compound 41, 2-[[1-(1-adamantyl)pyrazol-4-yl]amino]-4-[2-methoxy-3-(2-pyridyl)anilino]pyrimidine-5-carboxamide] | > 100 | 5000 to 10000 | 1000 to 5000
COc1c(Nc2nc(Nc3cnn(CC(C)C)c3)ncc2C(N)=O)cccc1-c1ncn(C)n1 [Compound 58, 2-[(1-isobutylpyrazol-4-yl)amino]-4-[2-methoxy-3-(1-methyl-1,2,4-triazol-3-yl)anilino]pyrimidine-5-carboxamide] | – | 1000 to 5000 | 500 to 1000
COc1c(Nc2nc(Nc3cnn(CC(F)(F)F)c3)ncc2C(N)=O)cccc1-c1ncn(C)n1 [Compound 59] | – | 5000 to 10000 | 1000 to 5000
